{"source": "paper PMC5459304", "about": "(International journal of toxicology, 2017)", "origin": "cited, not measured here", "system": "patients", "data": [{"smiles": "CC1(C)C(/C=C/C=C/C=C/C=C2\\N(CCCCS(=O)(=O)O)c3ccc4ccccc4c3C2(C)C)=[N+](CCCCS(=O)(=O)[O-])c2ccc3ccccc3c21", "note": "[ICG, indocyanine green]", "values": [{"measurement": "severe reaction rate", "setting": "1 severe reaction among 1226 patients", "value": 0.05, "unit": "%"}, {"measurement": "number of reactions", "setting": "1226 patients", "value": "7 reactions out of 1923 ICG angiograms"}, {"measurement": "adverse reaction rate", "setting": "1923 ICG angiograms in 1226 patients", "value": 0.3, "unit": "%"}, {"measurement": "number of severe reactions", "setting": "ICG angiograms from Japanese ophthalmologists", "value": "2 severe reactions among 2820 patients"}]}]}
